Experimental findings from ChEMBL document CHEMBL4739717, “Methods of treating cartilage disorders through inhibition of clk and dyrk” (2020) are described below.

A short description of experiment [1]: Effect on Wnt signaling pathway in human SW480 cells harbouring TCF/LEF luciferase reporter gene and SP5-Luc reporter gene incubated for 36 to 48 hrs by luminescence assay. Type of experiment: cell-based.
The target in experiment [2] is Dual specificity tyrosine-phosphorylation-regulated kinase 1A (Homo sapiens, UniProt Q13627). Description: Inhibition of recombinant DYRK1A (unknown origin) using Ser/Thr 18 peptide as substrate incubated for 1 hr in presence of ATP by FRET assay.
Experiment [3] is described as follows: Inhibition of IL1-beta induced MMP3 expression levels in human chondrocytes assessed as MMP3 levels incubated for 2hrs followed by IL1-beta stimulation and measured after overnight incubation by LANCE assay. Type of experiment: functional, cell-based. The note with it: Chondrocyte.
The nature of experiment [4]: Inhibition of IL1-beta induced MMP3 expression levels in human chondrocytes assessed as MMP3 levels incubated for 2hrs followed by IL1-beta stimulation and measured after overnight incubation by LANCE assay relative to control. Type of experiment: functional, Chondrocyte.
Experiment [5] can be described thus: Induction of chondrogenesis in human MSC assessed as maximum activity at 300 nM incubated for 6 days by rhodamine B and Nile red staining based imaging analysis relative to control. In kind it is functional. As to conditions: BMMSC, 144 h, time 6 day.
Experiment [6] concerns the target Dual specificity protein kinase CLK3 (Homo sapiens, UniProt P49761). In words: Inhibition of recombinant CLK3 (unknown origin) using Ser/Thr 18 peptide as substrate incubated for 1 hr in presence of ATP by FRET assay.
The nature of experiment [7]: Induction of chondrogenesis in human MSC assessed as incubated for 6 days by rhodamine B and Nile red staining based imaging analysis. Type of experiment: functional. As to conditions: bmmsc.
Experiment [8] is described as follows: Induction of chondrogenesis in human MSC assessed as maximum activity at 100 nM incubated for 6 days by rhodamine B and Nile red staining based imaging analysis relative to control. In kind it is functional. As to conditions: BMMSC, 144 h, time 6 day.
Experiment [9] in a line: Induction of chondrogenesis in human MSC assessed as maximum activity at 30 nM incubated for 6 days by rhodamine B and Nile red staining based imaging analysis relative to control. Type of experiment: functional. As to conditions: BMMSC, 144 h, time 6 day.

Molecules are shown by their SMILES.

Dual specificity protein kinase CLK3, sequence (P49761 whole entry): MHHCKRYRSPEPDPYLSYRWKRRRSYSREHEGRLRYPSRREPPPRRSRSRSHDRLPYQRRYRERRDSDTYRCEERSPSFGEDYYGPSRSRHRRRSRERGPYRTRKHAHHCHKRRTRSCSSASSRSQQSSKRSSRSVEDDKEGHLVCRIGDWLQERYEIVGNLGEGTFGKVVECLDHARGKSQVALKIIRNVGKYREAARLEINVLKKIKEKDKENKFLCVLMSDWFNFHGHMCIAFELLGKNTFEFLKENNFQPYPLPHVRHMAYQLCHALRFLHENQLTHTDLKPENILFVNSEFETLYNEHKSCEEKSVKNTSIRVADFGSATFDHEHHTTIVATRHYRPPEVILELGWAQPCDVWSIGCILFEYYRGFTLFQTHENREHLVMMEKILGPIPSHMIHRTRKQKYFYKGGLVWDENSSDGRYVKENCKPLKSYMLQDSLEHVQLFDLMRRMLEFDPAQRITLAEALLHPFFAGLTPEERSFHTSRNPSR

Regarding `COc1cncc(C(=O)Nc2c[nH]nc2C(=O)Nc2ccc3c(c2)CCNC3)c1`, the EC50 in [1] worked out at 0.613 µM; in experiment [2], 0.008 µM; in experiment [3], 0.342 µM. For the same molecule, in experiment [4], the Imax worked out at 76%.
For the molecule `CN(C)CCOc1cncc(-c2cc3c(-c4cc5c(-c6ccc(F)cc6)nccc5[nH]4)n[nH]c3cn2)c1`, the Emax at 0.3 µM in [5] is 113%. The EC50 was 3 µM in [1], 0.043 µM in experiment [2], more than 10 µM in [6] and 0.9 µM in experiment [7].
For the molecule `CO[C@H]1CC[C@H](C(=O)Nc2cc3cc(-c4cnn(C)c4CN4CCCCC4)ccc3cn2)CC1`, the EC50 in experiment [1] came to 0.471 µM; in experiment [2], 0.002 µM; in experiment [3] it was 3 µM. The Imax in [4] was determined as 0.2%.
As to `O=C(Nc1c[nH]nc1C(=O)Nc1cccnc1)c1cccnc1`, the half-maximal effective concentration (EC50) worked out at 0.0205 µM in experiment [1], 0.012 µM in experiment [2] and 0.0389 µM in experiment [3]. The Imax in experiment [4] is 100%.
Regarding `Fc1ccc(-c2cncc3[nH]c(-c4n[nH]c5cnc(-c6cncc(CN7CCCC7)c6)cc45)nc23)s1`, the EC50 was found to be 0.47 µM in [1], 0.008 µM in [2] and 3 µM in [3]. Besides, in experiment [4], the Imax came to 81%.
With `CC(C)(C)C(=O)Nc1cncc(-c2ccc3[nH]nc(-c4nc5c(-c6cccnc6)cncc5[nH]4)c3c2)c1`, the EC50 in [1] turned out to be 0.0854 µM; in [2], 0.005 µM; in experiment [3] it was 1.1 µM. The Imax in experiment [4] is 100%.
Consider `O=C(Nc1c[nH]nc1C(=O)Nc1ccc(N2CCCC2)nc1)c1cncc(OC2CCNCC2)c1`, for which the 50% effective concentration (EC50) stood at 0.0025 µM in experiment [1], 0.009 µM in [2] and 3 µM in experiment [3]. In addition, in experiment [4], the Imax is 80%.
Take `c1cc(-c2ccnc3[nH]c(-c4n[nH]c5ccc(-c6cncc(OCCN7CCCC7)c6)nc45)cc23)ccn1`: in experiment [5], the Emax at 0.3 µM was 39.6%. Besides, the figures for the EC50 in experiment [1], in experiment [2] and in [6] were more than 10 µM, 0.028 µM and more than 10 µM, respectively.
`CN1CCN(c2ccnc3[nH]c(-c4n[nH]c5ccc(-c6cn[nH]c6)nc45)cc23)CC1`: the maximal response (Emax) at 0.3 µM in [5] was 60.1%. For the same molecule, the EC50 is more than 10 µM in experiment [1], 0.049 µM in experiment [2], more than 10 µM in experiment [6] and 0.3 µM in [7].
Regarding `NC(=O)c1ccc(NC(=O)c2n[nH]c3ccc(-c4cncc(CN5CCCCC5)c4)cc23)cn1`, the EC50 turned out to be 0.013 µM in [1], 0.001 µM in [2] and 2.22 µM in [3]. For the same molecule, the Imax in experiment [4] is recorded as 100%.
With `O=C(Nc1c[nH]nc1-c1nc2c(-c3cccc(F)c3)cccc2[nH]1)c1cccnc1`, the EC50 was found to be 0.0029 µM in experiment [1], 0.004 µM in experiment [2] and 0.0765 µM in experiment [3]. Further, in [4], the Imax is recorded as 100%.
For the molecule `Cn1ncc(-c2ccc3cnc(NC(=O)c4ccnc(N5CCOCC5)c4)cc3c2)c1CN1CCOCC1`, in [3], the EC50 is 3 µM. For the same molecule, in experiment [4], the Imax is reported as 70%.
In the case of `c1cc(-c2ccnc3[nH]c(-c4n[nH]c5ccc(-c6cncc(CNCC7CCCC7)c6)nc45)cc23)ccn1`, the EC50 is more than 10 µM in experiment [1], 0.04 µM in experiment [2], more than 10 µM in experiment [6] and 0.1 µM in [7]. The maximal effect (Emax) at 0.1 µM in [8] was found to be 67.2%.
Regarding `O=C(Nc1c[nH]nc1C(=O)Nc1ccc(N2CCCCC2)nc1)c1cncc(OC2CCNCC2)c1`, the EC50 in experiment [1] came out at 0.662 µM; in experiment [2], 0.01 µM; in experiment [3] it was 3 µM. Further, the Imax in experiment [4] stood at 71%.
With `CCCC(=O)Nc1cncc(-c2ccc3[nH]nc(-c4cc5c(-c6ccncc6)cncc5[nH]4)c3c2)c1`, the EC50 in [1] is more than 10 µM; in experiment [2], 0.006 µM; in experiment [6] it was 0.46 µM; in experiment [7], 0.1 µM. In experiment [8], the Emax at 0.1 µM was found to be 124%.
Regarding `O=C(Nc1cc2cc(-c3cncc(CN4CCC(O)CC4)c3)ccc2cn1)c1ccc(F)cc1`, the concentration for a half-maximal effect (EC50) in experiment [1] worked out at 0.382 µM; in experiment [3], 0.0029 µM. Moreover, the Imax in experiment [4] amounted to 3.7%.
`Cn1cc(-c2ccc3cnc(NC(=O)c4ccnc(OC5CNC5)c4)cc3c2)cn1`: the EC50 in experiment [3] stood at 0.154 µM. The Imax in experiment [4] came to 100%.
Take `O=C(Nc1c[nH]nc1C(=O)Nc1cncc(-c2cccc(F)c2)c1)c1cncc(F)c1`: the EC50 in experiment [1] was 0.479 µM; in experiment [2] it was 0.063 µM; in experiment [6] it was more than 10 µM; in experiment [3], 0.0004 µM. For the same molecule, in [8], the Emax at 0.1 µM worked out at 81.5%.
`CN1CCC(n2cc(NC(=O)c3n[nH]c4ccc(-c5cnn(C)c5)cc34)cn2)CC1`: the results for the EC50 in experiment [1], in [2] and in experiment [3] were 0.079 µM, 0.001 µM and 0.818 µM, respectively. The Imax in [4] stood at 100%.
With `CC(C)N1CCC(n2cc(C(=O)Nc3cc4cc(-c5cn(C)nn5)ccc4cn3)cn2)CC1`, the figures for the EC50 in [1] and in experiment [3] were 0.0327 µM and 0.492 µM, respectively. The Imax in [4] was 91%.
The corresponding values for `CN(C)C1CN(c2ncc(C(=O)Nc3cc4cc(-c5cnn(C)c5)ccc4cn3)s2)C1` are 1.32 µM, 0.0714 µM and 0%.
As to `O=C(Nc1ccc(C(=O)N2CCCC2)nc1)c1n[nH]c2ccc(-c3cncc(CN4CCCCC4)c3)cc12`, the figures for the EC50 in experiment [1], in experiment [2] and in experiment [3] were 0.03 µM, 0.001 µM and 3 µM, respectively. In addition, the Imax in experiment [4] is on record as 100%.
Regarding `CN1CCC(Nc2ccc(NC(=O)c3n[nH]c4cc(F)c(-c5cnn(C)c5)cc34)cn2)CC1`, the EC50 was 0.23 µM in experiment [1], 0.002 µM in [2] and 1.16 µM in experiment [3]. In addition, in experiment [4], the Imax is given as 100%.
For `c1cnc2cc(-c3n[nH]c4ccc(-c5cncc(CN6CCCCC6)c5)cc34)[nH]c2c1`, in that order: 0.165 µM, 0.005 µM, 0.319 µM and 100%.
Regarding `c1cc(-c2ccnc3[nH]c(-c4n[nH]c5ccc(-c6cncnc6)cc45)cc23)ccn1`, the concentration for a half-maximal effect (EC50) was more than 10 µM in experiment [1], 0.068 µM in experiment [2] and more than 10 µM in experiment [6]. The Emax at 0.1 µM in experiment [8] is 17.3%.
Turning to `c1cc(-c2cncc3[nH]c(-c4n[nH]c5ccc(-c6cncc(CNCC7CCCC7)c6)cc45)nc23)cs1`, the EC50 in experiment [1] was 0.058 µM; in experiment [2], 0.012 µM; in experiment [6], more than 10 µM; in experiment [7], 0.1 µM. Moreover, the Emax at 0.1 µM in experiment [8] stood at 167%.
As to `Cn1cc(-c2cnc3[nH]nc(-c4cc5cccnc5[nH]4)c3c2)cn1`, the maximal response (Emax) at 0.3 µM in experiment [5] stood at 51.7%. Also, the concentration for a half-maximal effect (EC50) was more than 10 µM in experiment [1], 0.008 µM in experiment [2], more than 10 µM in [6] and 0.3 µM in experiment [7].
On to `CN(C)c1cncc(-c2cnc3[nH]nc(-c4cc5c(-c6ccncc6)cncc5[nH]4)c3c2)c1`, for which the maximal effect (Emax) at 0.03 µM in experiment [9] came to 191%. Further, the concentration for a half-maximal effect (EC50) was more than 10 µM in [1], 0.014 µM in experiment [2], more than 10 µM in [6] and 0.01 µM in experiment [7].
As to `Cn1cc(-c2ccc3cnc(NC(=O)c4ccnc(N5CC6CC5CN6)c4)cc3c2)cn1` (stereo not given), the half-maximal effective concentration (EC50) in [3] worked out at 3 µM. The Imax in experiment [4] turned out to be 69%.
In the case of `Cc1ccncc1-c1ccc2[nH]nc(-c3cc4c(-c5ccncc5)ccnc4[nH]3)c2n1`, the Emax at 0.3 µM in experiment [5] came to 56.5%. The concentration for a half-maximal effect (EC50) is more than 10 µM in [1], 0.066 µM in experiment [2], more than 10 µM in experiment [6] and 0.3 µM in experiment [7].
